Experimental data from patent publication US8691804B2 (Evotec AG, priority 2008, dated 2014).

Target: T1, human H3 receptors (Homo sapiens, UniProt Q9Y5N1)
T1 construct: host or cells: CHO-K1
Assay: cAMP quantification assay for human H3 receptor testing
Format: cell-based
Conditions: CHO-K1 cells expressing human H3 receptors; inhibition of agonist-induced decrease of cAMP; 100 nM histamine, 10 μM forskolin; read-out: Potency range (IC50 values)
Procedure: CHO—K1 cell line expressing human H3 receptors were purchased from Euroscreen (Gosselies, Belgium, Cat. no.: ES-392-C)
Human H3 receptor-expressing cell-lines were grown in Ham's F12 [Sigma, Cat. no. N6658], supplemented with 10% FBS [Sigma, Cat. no. F9665], 400 μg/ml G418 [Sigma, Cat. no. N1876] and 250 μg/ml Zeocin [Invitrogen, Cat. no. 46-0509]) according to the protocol provided by Euroscreen.
The assay measures the ability of test compounds to inhibit Histamine receptor agonist-induced decrease of intracellular free cAMP (receptor is Gi coupled).
Specifically, a cAMP quantification assay system from DiscoveRx (cAMP XS+; Cat. no. 90-0075) was used.
For the cAMP assay, confluent cells were detached from the culture vessels with 1× trypsin-EDTA solution (Sigma), and seeded into 384-well Costar plates (white, clear bottom, Cat. no. 3707) at a density of 10,000 cells per well. Cells were seeded in a volume of 50 μl in medium without antibiotics and incubated overnight in a humidified atmosphere with 5% CO2 at 37° C. The cAMP assay was performed according to the protocol provided by DiscoveRx.
The cell culture medium was removed and the cells washed once with PBS (50 μl per well). The plates were emptied by inversion and 7.5 μl/well of compound in PBS (containing 1 mM IBMX and 0.03% BSA) were added and incubated for 30 min at 37° C.
Subsequent 7.5 μl/well specific agonist solution was added and the plates for another 30 min incubated at 37° C.
hH3:100 nM histamine, 10 μM forskolin in PBS (containing 1 mM IBMX and 0.03% BSA)
After the incubation with the agonist, 5 μl/well cAMP XS antibody solution was added followed by 20 μl/well Gal/EII/Lysis (1:5:19)+ED (1:1). The plates were incubated for one hour at room temperature and afterwards 20 μl/well EA reagent was added. The luminescence was developed for approximately three hours at room temperature and the plates were read out using a ‘BMG Novostar’ plate reader.
Test compounds were assayed at 8 concentrations in triplicate. Serial 10-fold dilutions in 100% DMSO were made at a 100-times higher concentration than the final concentration and then diluted with a 2 step protocol in assay buffer to reach the required assay concentrations and 1% DMSO. […]

T1 sequence (Q9Y5N1 whole entry): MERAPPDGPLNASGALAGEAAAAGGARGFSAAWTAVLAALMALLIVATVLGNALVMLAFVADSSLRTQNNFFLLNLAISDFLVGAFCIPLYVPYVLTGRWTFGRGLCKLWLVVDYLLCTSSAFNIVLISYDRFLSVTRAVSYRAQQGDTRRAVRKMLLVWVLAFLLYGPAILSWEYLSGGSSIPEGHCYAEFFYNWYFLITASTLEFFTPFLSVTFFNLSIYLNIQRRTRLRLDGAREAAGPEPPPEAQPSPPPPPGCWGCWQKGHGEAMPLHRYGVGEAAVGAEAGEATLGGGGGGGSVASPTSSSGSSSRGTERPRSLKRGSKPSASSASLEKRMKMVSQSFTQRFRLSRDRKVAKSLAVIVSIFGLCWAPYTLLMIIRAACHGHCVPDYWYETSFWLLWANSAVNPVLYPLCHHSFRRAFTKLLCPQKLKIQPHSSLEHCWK

Row | SMILES | IC50 [nM]
1 | O=C(N1CCCN(C2CCC2)CC1)N1CC(O)C1 [Example 1, 1-[(4-cyclobutyl-1,4-diazepan-1-yl)carbonyl]azetidin-3-ol] | < 100
2 | O=C(N1CCN(C2CCC2)CC1)N1CC(O)C1 [Example 2, 1-[(4-cyclobutylpiperazin-1-yl)carbonyl]azetidin-3-ol] | 500 to 5000
3 | CNC(=O)c1ccc(OC2CN(C(=O)N3CCCN(C4CCC4)CC3)C2)nc1 [Example 3, 6-({1-[(4-cyclobutyl-1,4-diazepan-1-yl)carbonyl]azetidin-3-yl}oxy)-N-methylpyridine-3-carboxamide] | < 100
4 | NC(=O)c1ccc(OC2CN(C(=O)N3CCCN(C4CCC4)CC3)C2)cn1 [Example 4, 5-({1-[(4-cyclobutyl-1,4-diazepan-1-yl)carbonyl]azetidin-3-yl}oxy)pyridine-2-carboxamide] | < 100
5 | CNC(=O)c1ccc(OC2CN(C(=O)N3CCCN(C4CCC4)CC3)C2)cn1 [Example 5, 5-({1-[(4-cyclobutyl-1,4-diazepan-1-yl)carbonyl]azetidin-3-yl}oxy)-N-methylpyridine-2-carboxamide] | < 100
6 | CN(C)C(=O)c1ccc(OC2CN(C(=O)N3CCCN(C4CCC4)CC3)C2)cn1 [Example 6, 5-({1-[(4-cyclobutyl-1,4-diazepan-1-yl)carbonyl]azetidin-3-yl}oxy)-N,N-dimethylpyridine-2-carboxamide] | < 100
7 | CCN(CC)C(=O)c1ccc(OC2CN(C(=O)N3CCCN(C4CCC4)CC3)C2)cn1 [Example 7, 5-({1-[(4-cyclobutyl-1,4-diazepan-1-yl)carbonyl]azetidin-3-yl}oxy)-N,N-diethylpyridine-2-carboxamide] | < 100
8 | O=C(N1CCCN(C2CCC2)CC1)N1CC(Oc2ccc(C(F)(F)F)cn2)C1 [Example 11, 1-cyclobutyl-4-[(3-{[5-(trifluoromethyl)pyridin-2-yl]oxy}azetidin-1-yl)carbonyl]-1,4-diazepane] | < 100
9 | O=C(N1CCCN(C2CCC2)CC1)N1CC(Oc2ccc(Cn3cccn3)cc2)C1 [Example 16, 1-cyclobutyl-4-({3-[4-(1H-pyrazol-1-ylmethyl)phenoxy]azetidin-1-yl}carbonyl)-1,4-diazepane] | < 100
10 | O=C(N1CCCN(C2CCC2)CC1)N1CC(Oc2ccc(Cn3cccn3)cn2)C1 [Example 17, 1-cyclobutyl-4-[(3-{[5-(1H-pyrazol-1-ylmethyl)pyridin-2-yl]oxy}azetidin-1-yl)carbonyl]-1,4-diazepane] | < 100
11 | O=C(N1CCCN(C2CCC2)CC1)N1CC(Oc2ccc(CN3CCCCC3)cc2)C1 [Example 19, 1-cyclobutyl-4-({3-[4-(piperidin-1-ylmethyl)phenoxy]azetidin-1-yl}carbonyl)-1,4-diazepane] | < 100
12 | CN1CCN(Cc2ccc(OC3CN(C(=O)N4CCCN(C5CCC5)CC4)C3)cc2)CC1 [Example 20, 1-cyclobutyl-4-[(3-{4-[(4-methylpiperazin-1-yl)methyl]phenoxy}azetidin-1-yl)carbonyl]-1,4-diazepane] | < 100
13 | O=C(N1CCCN(C2CCC2)CC1)N1CC(Oc2ccc(CN3CCC(F)(F)CC3)cc2)C1 [Example 21, 1-cyclobutyl-4-[(3-{4-[(4,4-difluoropiperidin-1-yl)methyl]phenoxy}azetidin-1-yl)carbonyl]-1,4-diazepane] | < 100
14 | O=C(N1CCCN(C2CCC2)CC1)N1CC(Oc2ccc(Br)cn2)C1 [Example 22, 1-({3-[(5-bromopyridin-2-yl)oxy]azetidin-1-yl}carbonyl)-4-cyclobutyl-1,4-diazepane] | < 100
15 | Cc1cc(Cl)ccc1OC1CN(C(=O)N2CCCN(C3CCC3)CC2)C1 [Example 25, 1-{[3-(4-chloro-2-methylphenoxy)azetidin-1-yl]carbonyl}-4-cyclobutyl-1,4-diazepane] | < 100
16 | Cc1cc(OC2CN(C(=O)N3CCCN(C4CCC4)CC3)C2)ccn1 [Example 27, 1-cyclobutyl-4-({3-[(2-methylpyridin-4-yl)oxy]azetidin-1-yl}carbonyl)-1,4-diazepane] | < 100
17 | O=C(N1CCCN(C2CCC2)CC1)N1CC(Oc2cccc(C(F)(F)F)c2)C1 [Example 28, 1-cyclobutyl-4-({3-[3-(trifluoromethyl)phenoxy]azetidin-1-yl}carbonyl)-1,4-diazepane] | < 100
18 | O=C(N1CCCN(C2CCC2)CC1)N1CC(Oc2ccccc2C(F)(F)F)C1 [Example 29, 1-cyclobutyl-4-({3-[2-(trifluoromethyl)phenoxy]azetidin-1-yl}carbonyl)-1,4-diazepane] | < 100
19 | N#Cc1cccc(OC2CN(C(=O)N3CCCN(C4CCC4)CC3)C2)c1 [Example 30, 3-({1-[(4-cyclobutyl-1,4-diazepan-1-yl)carbonyl]azetidin-3-yl}oxy)benzonitrile] | < 100
20 | N#Cc1ccccc1OC1CN(C(=O)N2CCCN(C3CCC3)CC2)C1 [Example 31, 2-({1-[(4-cyclobutyl-1,4-diazepan-1-yl)carbonyl]azetidin-3-yl}oxy)benzonitrile] | < 100
21 | CNC(=O)c1ccc(OC2CN(C(=O)N3CCCN(C4CCC4)CC3)C2)c(C)c1 [Example 34, 4-({1-[(4-cyclobutyl-1,4-diazepan-1-yl)carbonyl]azetidin-3-yl}oxy)-N,3-dimethylbenzamide] | < 100
22 | O=C(NCC1CC1)c1ccc(OC2CN(C(=O)N3CCCN(C4CCC4)CC3)C2)cn1 [Example 35, 5-({1-[(4-cyclobutyl-1,4-diazepan-1-yl)carbonyl]azetidin-3-yl}oxy)-N-(cyclopropylmethyl)pyridine-2-carboxamide] | < 100

Results, then the compound that gave them:

Row | IC50 [nM] | SMILES
23 | < 100 | CNC(=O)c1ccc(OC2CN(C(=O)N3CCCN(C4CCC4)CC3)C2)cc1 [Example 8, 4-({1-[(4-cyclobutyl-1,4-diazepan-1-yl)carbonyl]azetidin-3-yl}oxy)-N-methylbenzamide]
24 | < 100 | CN(C)C(=O)c1ccc(OC2CN(C(=O)N3CCCN(C4CCC4)CC3)C2)cc1 [Example 9, 4-({1-[(4-cyclobutyl-1,4-diazepan-1-yl)carbonyl]azetidin-3-yl}oxy)-N,N-dimethylbenzamide]
25 | < 100 | O=C(N1CCCN(C2CCC2)CC1)N1CC(Oc2ccc(C(F)(F)F)cc2)C1 [Example 10, 1-cyclobutyl-4-({3-[4-(trifluoromethyl)phenoxy]azetidin-1-yl}carbonyl)-1,4-diazepane]
26 | < 100 | N#Cc1ccc(OC2CN(C(=O)N3CCCN(C4CCC4)CC3)C2)cc1 [Example 12, 4-({1-[(4-cyclobutyl-1,4-diazepan-1-yl)carbonyl]azetidin-3-yl}oxy)benzonitrile]
27 | < 100 | O=C(N1CCCN(C2CCC2)CC1)N1CC(Oc2ccc(F)cc2)C1 [Example 13, 1-cyclobutyl-4-{[3-(4-fluorophenoxy)azetidin-1-yl]carbonyl}-1,4-diazepane]
28 | < 100 | O=C(N1CCCN(C2CCC2)CC1)N1CC(Oc2ccc(Cl)cc2)C1 [Example 14, 1-{[3-(4-chlorophenoxy)azetidin-1-yl]carbonyl}-4-cyclobutyl-1,4-diazepane]
29 | < 100 | O=C(N1CCCN(C2CCC2)CC1)N1CC(Oc2ccccc2)C1 [Example 15, 1-cyclobutyl-4-[(3-phenoxyazetidin-1-yl)carbonyl]-1,4-diazepane]
30 | < 100 | O=C(N1CCCN(C2CCC2)CC1)N1CC(Oc2ccc(N3CCCC3=O)cc2)C1 [Example 18, 1-[4-({1-[(4-cyclobutyl-1,4-diazepan-1-yl)carbonyl]azetidin-3-yl}oxy)phenyl]pyrrolidin-2-one]
31 | < 100 | O=C(N1CCCN(C2CCC2)CC1)N1CC(Oc2ccc(Cl)c(Cl)c2)C1 [Example 23, 1-cyclobutyl-4-{[3-(3,4-dichlorophenoxy)azetidin-1-yl]carbonyl}-1,4-diazepane]
32 | < 100 | O=C(N1CCCN(C2CCC2)CC1)N1CC(Oc2ccc(Br)nc2)C1 [Example 24, 1-({3-[(6-bromopyridin-3-yl)oxy]azetidin-1-yl}carbonyl)-4-cyclobutyl-1,4-diazepane]
33 | < 100 | O=C(N1CCCN(C2CCC2)CC1)N1CC(Oc2ccc(-n3ccnc3)cc2)C1 [Example 26, 1-cyclobutyl-4-({3-[4-(1H-imidazol-1-yl)phenoxy]azetidin-1-yl}carbonyl)-1,4-diazepane]
34 | < 100 | O=C(N1CCCN(C2CCC2)CC1)N1CC(Oc2cccc(Cl)c2)C1 [Example 32, 1-{[3-(3-chlorophenoxy)azetidin-1-yl]carbonyl}-4-cyclobutyl-1,4-diazepane]
35 | < 100 | O=C(N1CCCN(C2CCC2)CC1)N1CC(Oc2ccccc2Cl)C1 [Example 33, 1-{[3-(2-chlorophenoxy)azetidin-1-yl]carbonyl}-4-cyclobutyl-1,4-diazepane]
